# Measurements as given in PMC8151276, “An Integrated Approach toward NanoBRET Tracers for Analysis of GPCR Ligand Engagement” (Molecules, 2021).
# How the values were obtained:
# Format in all cases: binding
# LHCGR = target: T1, LHCGR (Homo sapiens, UniProt P22888); experiment: NanoBRET screen HiBiT-LHCGR in HEK293
# T1 construct: purchased Promega (in-house HiBiT-GPCR construct library, NanoBRET)
# Experimental: (§1) Each tracer candidate was screened across the entire library of HiBiT-GPCR constructs using NanoBRET as the detection modality. As depicted in Figure 4A, the specificity of interactions was evaluated through decrease in BRET due to competitive displacement of a bound tracer by excess parental compound. Each tracer was analyzed for binding to each HiBiT-GPCR fusion in the absence and in the presence of competing parental compound. Briefly, HEK293 cells were transfected with HiBiT-GPCR constructs diluted into promoterless DNA to reduce expression and maximize translocation to the cell surface. Each tracer candidate was then screened at concentrations of 1 μM and 0.1 μM across cells expressing these fusions. Cells were treated for 1.5 h with tracer either alone or in the presence of 20 μM competing parental compound (i.e., control). BRET was measured upon addition of purified LgBiT and subsequent complementation with HiBiT genetically fused to a GPCR. The specificity of interactions was assessed through a decrease in BRET signal due to competitive displacement of the bound tracer. To further gauge the robustness of these interactions, the fold response over the control (i.e., BRETtracer/BRETcontrol) was calculated. We chose a 1.5-fold response, which translates to ≥7-fold signal over noise as the minimal threshold required to score an interaction as positive. […]. Below we highlight the screening results obtained for our exemplary fluorescent tracers based on Clozapine, Amitriptyline and AZD1283.
# (§2) HiBiT-GPCR DNA constructs were diluted in 10 mM Tris pH 8 to a final concentration of 0.01 μg/μL, arrayed in 96-well plates and stored at −20 °C. For transfection, HEK293 cells were suspended in Opti-MEM (without phenol red) supplemented with 2% fetal bovine serum (Seradigm) and 100 units/mL penicillin–streptomycin (Gibco) at a final concentration of 220,000 cells/mL and dispensed into white 96-well plates at 90 μL/well. Subsequent transfections and screens were carried using an Agilent Bravo Automated Liquid Handling Platform. First, the 96-well HiBiT DNA arrays were diluted 25-fold in Opti-MEM (without serum or phenol red) to a final concentration of 0.0004 μg/μL and 20 μL of the diluted DNAs were transferred into new 96-well plates. Next, promoterless carrier DNA (1 μg/μL) was diluted 25-fold (0.04 μg/μL) and then dispensed into the diluted arrays at 20 μL/well. Following brief mixing, Viafect transfection reagent (Promega) diluted 16-fold into Opti-MEM was dispensed into the plates at 40 μL/well. After mixing by pipetting, plates were incubated for 10 min on the pipetting station deck. The DNA-transfection reagent complexes were then added to plates containing cells. To facilitate the screen, 10 μL of DNA-transfection reagent complexes were added in duplicates to the top 4 and bottom 4 rows, resulting in two identical 48-well arrays per plate. Plates with transfected cells were incubated for 18–20 h at 37 °C/5% CO2. A screen of each tracer across the entire library using two different concentrations requires duplicate plates of transfected cells. Depending on the number of tracers being screened, transfections can be scaled up using the same ratios. The next day, for each tracer, four 20× screening solutions in tracer dilution buffer (Promega) were prepared: two duplicates at final concentration of 20 μM and two duplicates at a final concentration of 2 μM. A competing unmodified compound was added to one of each duplicate at a final concentration of 400 μM. The four resulting solutions were diluted 4-fold in Opti-MEM without serum or phenol red to generate 5× solutions (5 µM and 0.5 µM tracer +/− 100 μM competing compound). To screen the library, a BioTek MultiFlo FX liquid dispenser was used to dispense 22.5 µL of tracer solution to the top 4 rows and 22.5 µL tracer + competing compound solution to the 4 bottom rows. Plates were briefly mixed on an orbital shaker and incubated for 1.5 h at room temperature. […]
# PTGER2 = target: T2, PTGER2 (Homo sapiens, UniProt P43116); experiment: NanoBRET screen HiBiT-PTGER2 in HEK293
# T2 construct: purchased Promega (in-house HiBiT-GPCR construct library, NanoBRET)
# Experimental: as §1, §2
# C5AR1 = target: T3, C5AR1 (Homo sapiens, UniProt P21730); experiment: NanoBRET screen HiBiT-C5AR1 in HEK293
# T3 construct: purchased Promega (in-house HiBiT-GPCR construct library, NanoBRET)
# T3 sequence (P21730 1-350): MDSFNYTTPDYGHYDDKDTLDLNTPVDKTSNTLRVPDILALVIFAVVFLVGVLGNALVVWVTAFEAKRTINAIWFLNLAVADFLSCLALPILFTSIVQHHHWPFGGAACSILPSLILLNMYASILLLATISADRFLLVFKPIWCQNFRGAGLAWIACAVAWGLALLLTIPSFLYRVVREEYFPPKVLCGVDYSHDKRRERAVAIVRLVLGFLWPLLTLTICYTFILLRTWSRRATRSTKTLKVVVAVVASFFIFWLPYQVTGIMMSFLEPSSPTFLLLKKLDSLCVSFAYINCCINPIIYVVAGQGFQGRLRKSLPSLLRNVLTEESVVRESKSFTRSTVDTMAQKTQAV
# Experimental: as §1, §2
# PTGIR = target: T4, PTGIR (Homo sapiens, UniProt P43119); experiment: NanoBRET screen HiBiT-PTGIR in HEK293
# T4 construct: purchased Promega (in-house HiBiT-GPCR construct library, NanoBRET)
# Experimental: as §1, §2
# CCKBR = target: T5, CCKBR (Homo sapiens, UniProt P32239); experiment: NanoBRET screen HiBiT-CCKBR in HEK293
# T5 construct: purchased Promega (in-house HiBiT-GPCR construct library, NanoBRET)
# T5 sequence (P32239 1-447): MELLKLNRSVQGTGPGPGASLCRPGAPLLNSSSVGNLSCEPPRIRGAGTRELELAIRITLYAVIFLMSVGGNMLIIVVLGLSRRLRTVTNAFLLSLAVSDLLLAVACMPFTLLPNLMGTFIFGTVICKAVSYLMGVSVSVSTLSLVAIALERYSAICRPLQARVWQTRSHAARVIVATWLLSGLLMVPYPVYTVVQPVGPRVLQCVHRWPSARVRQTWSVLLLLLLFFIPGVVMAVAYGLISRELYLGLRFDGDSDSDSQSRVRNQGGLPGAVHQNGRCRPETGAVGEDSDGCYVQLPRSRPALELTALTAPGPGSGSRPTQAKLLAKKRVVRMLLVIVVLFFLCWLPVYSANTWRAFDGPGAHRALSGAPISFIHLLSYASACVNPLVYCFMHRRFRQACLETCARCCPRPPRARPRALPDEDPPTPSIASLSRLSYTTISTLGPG
# Experimental: as §1, §2
# P2RY12 = target: T6, P2RY12 (Homo sapiens, UniProt Q9H244); experiment: NanoBRET screen HiBiT-P2RY12 in HEK293
# T6 construct: purchased Promega (in-house HiBiT-GPCR construct library, NanoBRET)
# Experimental: as §1, §2
# P2RY4 = target: T7, P2RY4 (Homo sapiens, UniProt P51582); experiment: NanoBRET screen HiBiT-P2RY4 in HEK293
# T7 construct: purchased Promega (in-house HiBiT-GPCR construct library, NanoBRET)
# Experimental: as §1, §2
# T4 sequence (P43119 whole entry): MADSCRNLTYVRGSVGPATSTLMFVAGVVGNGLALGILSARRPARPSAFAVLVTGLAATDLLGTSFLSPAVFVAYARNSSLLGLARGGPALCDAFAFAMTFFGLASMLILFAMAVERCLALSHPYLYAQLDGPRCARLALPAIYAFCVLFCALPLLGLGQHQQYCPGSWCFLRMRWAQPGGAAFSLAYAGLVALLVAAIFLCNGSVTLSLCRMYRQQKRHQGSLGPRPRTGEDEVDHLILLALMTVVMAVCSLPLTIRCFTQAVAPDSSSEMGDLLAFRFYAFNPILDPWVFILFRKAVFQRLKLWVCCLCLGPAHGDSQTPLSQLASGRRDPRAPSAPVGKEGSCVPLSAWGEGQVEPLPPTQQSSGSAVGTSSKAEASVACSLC
# T1 sequence (P22888 27-699): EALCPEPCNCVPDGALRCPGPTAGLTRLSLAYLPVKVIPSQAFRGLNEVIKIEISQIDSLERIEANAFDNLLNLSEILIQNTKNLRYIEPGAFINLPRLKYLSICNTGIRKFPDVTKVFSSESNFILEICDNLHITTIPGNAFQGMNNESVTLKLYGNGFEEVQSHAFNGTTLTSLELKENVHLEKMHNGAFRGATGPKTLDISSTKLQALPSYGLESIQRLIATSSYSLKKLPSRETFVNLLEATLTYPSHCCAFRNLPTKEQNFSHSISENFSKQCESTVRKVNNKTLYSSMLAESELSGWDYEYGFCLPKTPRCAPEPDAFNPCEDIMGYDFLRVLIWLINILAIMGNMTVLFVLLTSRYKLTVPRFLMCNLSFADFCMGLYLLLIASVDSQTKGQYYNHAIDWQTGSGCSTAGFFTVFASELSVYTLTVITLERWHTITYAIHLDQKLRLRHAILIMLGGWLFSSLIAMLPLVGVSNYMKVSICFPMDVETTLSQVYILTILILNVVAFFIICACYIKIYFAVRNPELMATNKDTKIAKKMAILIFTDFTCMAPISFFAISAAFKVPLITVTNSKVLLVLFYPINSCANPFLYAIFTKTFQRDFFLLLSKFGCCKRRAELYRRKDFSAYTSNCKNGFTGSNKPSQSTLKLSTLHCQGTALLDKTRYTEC
# T7 sequence (P51582 whole entry): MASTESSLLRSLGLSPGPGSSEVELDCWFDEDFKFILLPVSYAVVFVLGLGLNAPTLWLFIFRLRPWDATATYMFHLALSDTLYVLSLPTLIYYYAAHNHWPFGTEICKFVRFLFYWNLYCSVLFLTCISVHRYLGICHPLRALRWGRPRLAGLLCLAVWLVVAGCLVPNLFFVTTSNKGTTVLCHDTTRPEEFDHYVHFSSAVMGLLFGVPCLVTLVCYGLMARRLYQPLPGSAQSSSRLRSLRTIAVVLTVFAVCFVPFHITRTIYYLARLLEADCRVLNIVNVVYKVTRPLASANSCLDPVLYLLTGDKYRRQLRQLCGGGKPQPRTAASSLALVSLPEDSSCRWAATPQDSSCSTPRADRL
# T6 sequence (Q9H244 whole entry, one chain of several): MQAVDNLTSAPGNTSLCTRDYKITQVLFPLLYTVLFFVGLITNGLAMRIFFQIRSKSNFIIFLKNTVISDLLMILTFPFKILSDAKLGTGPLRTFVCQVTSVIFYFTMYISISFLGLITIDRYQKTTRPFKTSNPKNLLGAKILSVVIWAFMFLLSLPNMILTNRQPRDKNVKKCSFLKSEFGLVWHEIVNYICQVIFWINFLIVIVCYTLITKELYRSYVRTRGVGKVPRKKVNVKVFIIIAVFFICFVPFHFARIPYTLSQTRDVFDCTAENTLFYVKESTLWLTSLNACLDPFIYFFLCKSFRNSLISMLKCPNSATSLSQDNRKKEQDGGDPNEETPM
# T2 sequence (P43116 whole entry): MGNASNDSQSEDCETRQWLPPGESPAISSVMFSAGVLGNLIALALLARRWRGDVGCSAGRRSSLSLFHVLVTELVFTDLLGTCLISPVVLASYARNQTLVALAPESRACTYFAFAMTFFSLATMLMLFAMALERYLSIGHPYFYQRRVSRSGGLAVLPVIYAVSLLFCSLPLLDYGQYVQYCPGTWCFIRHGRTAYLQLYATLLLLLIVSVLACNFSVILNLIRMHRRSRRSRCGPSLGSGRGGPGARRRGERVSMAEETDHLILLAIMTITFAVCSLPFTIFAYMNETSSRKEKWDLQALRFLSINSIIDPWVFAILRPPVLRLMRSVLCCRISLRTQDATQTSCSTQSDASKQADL
Compound,"NanoBRET Fold Response (LHCGR; LHCGR, tracer 0.1μM)","NanoBRET Fold Response (LHCGR; LHCGR, tracer 1μM)","NanoBRET Fold Response (PTGER2; PTGER2, tracer 0.1μM)","NanoBRET Fold Response (PTGER2; PTGER2, tracer 1μM)","NanoBRET Fold Response (C5AR1; C5AR1, tracer 0.1μM)","NanoBRET Fold Response (C5AR1; C5AR1, tracer 1μM)","NanoBRET Fold Response (PTGIR; PTGIR, tracer 0.1μM)","NanoBRET Fold Response (PTGIR; PTGIR, tracer 1μM)","NanoBRET Fold Response (CCKBR; CCKBR, tracer 0.1μM)","NanoBRET Fold Response (CCKBR; CCKBR, tracer 1μM)","NanoBRET Fold Response (P2RY12; P2RY12, tracer 0.1μM)","NanoBRET Fold Response (P2RY12; P2RY12, tracer 1μM)","NanoBRET Fold Response (P2RY4; P2RY4, tracer 0.1μM)","NanoBRET Fold Response (P2RY4; P2RY4, tracer 1μM)",other results
COc1ccc2c(n1)c(CCNC(C)=O)cn2CCNC(=O)CCc1ccc2n1[B-](F)(F)[N+]1=C(c3ccc[nH]3)C=CC1=C2 [Azamelatonin-1-NB590],–,–,–,–,–,–,–,–,–,–,–,–,–,–,NanoBRET Fold Response (LHCGR; 0.1μM tracer): 1.03; NanoBRET Fold Response (LHCGR; 1μM tracer): 1.05; NanoBRET Fold Response (PTGER2; 0.1μM tracer): 1.01; NanoBRET Fold Response (PTGER2; 1μM tracer): 1.07; NanoBRET Fold Response (C5AR1; 0.1μM tracer): 0.90; NanoBRET Fold Response (C5AR1; 1μM tracer): 0.94; NanoBRET Fold Response (PTGIR; 0.1μM tracer): 0.94; NanoBRET Fold Response (PTGIR; 1μM tracer): 1.06; NanoBRET Fold Response (CCKBR; 0.1μM tracer): 1.01; NanoBRET Fold Response (CCKBR; 1μM tracer): 1.02; NanoBRET Fold Response (P2RY12; 0.1μM tracer): 1.02; NanoBRET Fold Response (P2RY12; 1μM tracer): 1.02; NanoBRET Fold Response (P2RY4; 0.1μM tracer): 1.10; NanoBRET Fold Response (P2RY4; 1μM tracer): 1.10
CC(C)N(CC[C@H](c1ccccc1)c1cc(CCNC(=O)c2ccc(CNC(=O)CCc3ccc4n3[B-](F)(F)[N+]3=C(c5ccc[nH]5)C=CC3=C4)cc2)ccc1O)C(C)C [Tolterodine-BZ-NB590],0.98,1.05,1.04,0.97,1.01,1.11,1.00,1.04,0.97,1.06,1.08,0.91,0.97,1.08,–
O=C(CCc1ccc2n1[B-](F)(F)[N+]1=C(c3ccc[nH]3)C=CC1=C2)NCCOCCOCCNC(=O)OCCOCCN1CCN(C2=Nc3ccccc3Sc3ccccc32)CC1 [Quetiapine-a-2-NB590],1.01,0.79,0.96,1.05,1.07,0.84,1.03,0.94,1.05,0.93,0.99,0.92,1.05,0.84,–
Cc1cc2c(s1)Nc1ccccc1N=C2N1CCN(CCCNC(=O)CCOCCOCCOCCOCCNC(=O)CCc2ccc3n2[B-](F)(F)[N+]2=C(c4ccc[nH]4)C=CC2=C3)CC1 [Olanzapine-a-2-NB590],1.00,1.01,1.03,0.98,1.06,1.09,0.99,0.98,1.07,0.89,0.98,0.97,1.07,0.95,–
COc1ccccc1N1CCN(CCCCN2C(=O)c3ccc(CNC(=O)CCOCCOCCOCCOCCNC(=O)CCc4ccc5n4[B-](F)(F)[N+]4=C(c6ccc[nH]6)C=CC4=C5)cc3C2=O)CC1 [NAN-190-2-NB590],0.98,1.04,1.02,0.98,1.03,1.04,0.99,1.02,1.00,0.97,–,–,–,1.18,–
CN(CCC=C1c2ccccc2CCc2ccccc21)C(=O)CCOCCOCCOCCOCCNC(=O)CCc1ccc2n1[B-](F)(F)[N+]1=C(c3ccc[nH]3)C=CC1=C2 [Amitriptyline-e-2-NB590],–,–,–,–,–,–,–,–,–,–,–,–,–,–,NanoBRET Fold Response (C5AR1; tracer at 1μM): 1.02; NanoBRET Fold Response (CCKBR; tracer at 1μM): 1.02; NanoBRET Fold Response (P2RY12; tracer at 1μM): 1.05; NanoBRET Fold Response (P2RY4; tracer at 1μM): 1.04
CN(C)CCC=C1c2ccccc2CCc2ccc(C(=O)NCCNC(=O)CCOCCOCCOCCOCCNC(=O)CCc3ccc4n3[B-](F)(F)[N+]3=C(c5ccc[nH]5)C=CC3=C4)cc21 [Amitriptyline-a-2-NB590],–,–,–,–,–,–,–,–,–,–,–,–,–,–,NanoBRET Fold Response (C5AR1; tracer at 0.1μM): 1.03; NanoBRET Fold Response (C5AR1; tracer at 1μM): 1.01; NanoBRET Fold Response (CCKBR; tracer at 0.1μM): 1.02; NanoBRET Fold Response (CCKBR; tracer at 1μM): 0.98; NanoBRET Fold Response (P2RY12; tracer at 0.1μM): 1.14; NanoBRET Fold Response (P2RY12; tracer at 1μM): 0.93; NanoBRET Fold Response (P2RY4; tracer at 0.1μM): 1.01; NanoBRET Fold Response (P2RY4; tracer at 1μM): 1.02
